Like-named read-outs stand apart in the source and are kept apart here.
Tests used:
[1] = system: pCREB, BDNF, pSynapsin, PSD95 in humanized PDE4D mice; assay: Immunoblot of hippocampal plasticity-related proteins; type: in vivo, mouse
Protocol: Hippocampal tissues were treated with lysis buffer for protein extraction. Then, 10–30 μg protein was separated using gel electrophoresis and transferred to polyvinylidene difluoride membranes, blocked with blocking buffer, and incubated with primary antibodies overnight at 4 °C. Labeled protein bands were detected using the enhanced chemiluminescence method and quantified using Quantity One 1-D Analysis Software.
Hippocampal tissues were lysed with RIPA buffer containing protease and phosphatase inhibitors and centrifuged at 13,000 rpm for 30 min at 4 °C. Aliquots of supernatant containing 10-30 μg protein were separated using 10% SDS-PAGE as described previously^66. Proteins from the gels were transferred to polyvinylidene difluoride membranes, blocked with blocking buffer (phosphate buffered saline containing 3% BSA and 0.1% sodium azide), and incubated with primary antibodies overnight at 4°C (phospho-CREB at Ser 133 (# ab32096, diluted 1:1000, abcam, Cambridge, MA), CREB (# sc-186, diluted 1:200, Santa Cruz Biotechnology, Dallas, Texas), β -actin (Catalog # ab8227, diluted 1:2000, abcam, Cambridge, MA)), Synapsin (#2312, diluted 1:1000, Cell Signaling Technology), Phospho-synapsin (#2311, diluted […], Cell Signaling Technology ), and PSD-95 (#2507, diluted 1:1000, Cell Signaling Technology, Danvers, MA). Labeled protein bands were detected using the enhanced chemiluminescence (ECL) method and quantified using Quantity One 1-D Analysis Software.

[2] = system: humanized PDE4D mice; assay: Y-maze spontaneous alternation test; type: in vivo, mouse; details: humanized PDE4D mice, oral gavage 1 h prior to test
Protocol: (§1) The test consists of a single 5 min trial, in which the mouse was allowed to explore all three arms of the Y-maze [31]. Spontaneous alternation (%) was defined as consecutive entries in three different arms, divided by the number of possible alternations (total arm entries minus 2).
(§2) Y-maze spontaneous alternation test. The Y-maze apparatus made of matt blue Plexiglas had three identical arms (L 40 cm, W 5 cm, H 15 cm) placed at 120° from each other. The test consisted of a single 5 min trial, in which the mouse was allowed to explore all three arms of the Y-maze. The start arm was varied between animals to avoid placement bias. Spontaneous Alternation (%) was defined as consecutive entries in 3 different arms, divided by the number of possible alternations (total arm entries minus 2). Mice with less than 8 arm entries during the 5-min trial were excluded from the analysis.

[3] = system: wild-type mice; assay: Y-maze spontaneous alternation test; type: in vivo, mouse; details: oral gavage 1 h prior to test
Protocol: as §1, §2

[4] = molecular target: PDE4 binding sites in humanized PDE4D mouse brain membranes; assay: [3H]-rolipram radioligand binding to brain membranes
Protocol: Mice were killed by decapitation, and the brains were immediately dissected on ice and homogenized in binding buffer using a Polytron homogenizer (Brinkman Instruments, Westbury, NY). The membrane fraction of the homogenate was obtained by centrifugation at 15,000 × g for 15 min, and resuspension of the pellet in the binding buffer.
Mice were killed by decapitation, and the brains were immediately dissected on ice and homogenized in binding buffer (50 mM Tris-HCl, 5 mM MgCl2, pH 7.5) using a Polytron homogenizer (Brinkman Instruments, Westbury, NY). The membrane fraction of the homogenate was obtained by centrifugation at 15,000 g for 15 min, and resuspension of the pellet in the binding buffer^29.
At the end of the incubation, reactions were stopped by adding 5 ml of the ice-cold binding buffer and rapid vacuum filtration through glass fiber filters that had been soaked in 0.3% polyethyleneimine. The filters were then washed twice with 5 ml of the ice-cold binding buffer, and discs of filter paper were collected for measurement of radioactivity by liquid scintillation counting.

[5] = molecular target: T1, humanized mouse PDE4D7 dimer S129D(PKA), Y271F(UCR2) (Mus musculus, UniProt Q01063, S129D/Y271F); assay: biochemical; type: biochemical
T1 construct: hexahistidine; Proteos Inc; host or cells: Baculovirus-infected Sf9 insect cells
T1 sequence (Q01063 1-747 S129D/Y271F): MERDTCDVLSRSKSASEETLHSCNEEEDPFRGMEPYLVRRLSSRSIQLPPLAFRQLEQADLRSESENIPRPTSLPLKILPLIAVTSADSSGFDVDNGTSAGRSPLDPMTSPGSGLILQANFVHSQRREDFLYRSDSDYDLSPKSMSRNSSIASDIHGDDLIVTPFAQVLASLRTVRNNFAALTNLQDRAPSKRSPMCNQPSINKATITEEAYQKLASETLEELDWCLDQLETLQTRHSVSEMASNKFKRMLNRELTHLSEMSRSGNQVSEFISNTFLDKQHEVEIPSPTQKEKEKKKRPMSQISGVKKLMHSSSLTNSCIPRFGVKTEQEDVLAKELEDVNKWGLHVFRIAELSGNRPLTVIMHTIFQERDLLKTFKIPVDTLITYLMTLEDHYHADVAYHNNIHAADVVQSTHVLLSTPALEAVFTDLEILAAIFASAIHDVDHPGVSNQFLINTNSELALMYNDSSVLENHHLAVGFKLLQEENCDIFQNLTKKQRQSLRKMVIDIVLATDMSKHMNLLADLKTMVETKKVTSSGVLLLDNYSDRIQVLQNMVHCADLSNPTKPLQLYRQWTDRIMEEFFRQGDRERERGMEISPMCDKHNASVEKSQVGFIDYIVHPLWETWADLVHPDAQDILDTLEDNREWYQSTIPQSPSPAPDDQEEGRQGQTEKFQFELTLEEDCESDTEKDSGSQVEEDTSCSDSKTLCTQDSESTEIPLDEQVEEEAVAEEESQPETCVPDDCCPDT
Protocol: Kinetic assay of cAMP hydrolysis by purified PDE4 enzymes is measured by coupling the formation of the PDE4 reaction product 5′-adenosine monophosphate (AMP) to the oxidation of reduced nicotinamide adenine dinucleotide (NADH). This is accomplished with three coupling enzymes (yeast myokinase, pyruvate kinase, and lactate dehydrogenase), and allows fluorescent determination of reaction rates [19]. To measure inhibition of PDE4 enzymes by test compounds, data were percent normalized relative to controls and are presented as percent inhibition.
Kinetic assay of cAMP hydrolysis by purified PDE4 enzymes is measured by coupling the formation of the PDE4 reaction product 5′-adenosine monophosphate (AMP) to the oxidation of reduced nicotinamide adenine dinucleotide (NADH). This is accomplished with three coupling enzymes (yeast myokinase, pyruvate kinase, and lactate dehydrogenase), and allows fluorescent determination of reaction rates.^19 Assays were performed in 96-well plates in a total volume of 200 μl/well. Compounds were dissolved in dimethylsulfoxide (DMSO) and added to plates in a volume of 10 μl followed by addition of 165 μl of assay mix. Plates were pre-incubated at 25 °C for 10 min. The enzyme reaction was initiated by the addition of 25 μl of cAMP followed by thorough mixing. […] Initial rates (slopes) were determined from linear portions of the progress curves. […]

[6] = repeated oral dosing 14 days, hPDE4D mice

O=C(O)Cc1ccc(Cc2cc(-c3cccc(Cl)c3)nc(C(F)(F)F)c2)cc1 [BPN14770]
hippocampal CREB phosphorylation or BDNF expression after single acute dose ([1]; 1 h after dosing, data not shown): no change
synapsin phosphorylation in prefrontal cortex and cortex ([1]; hPDE4D mice, repeated dosing, data not shown): increased phosphorylation of synapsin was also observed
increase in hippocampal PSD95 ([1]; repeated dosing, 0.03 mg/kg): 1.4 fold
increase in hippocampal phosphorylation of synapsin ([1]; repeated dosing, 0.03 mg/kg): 1.5 fold
elevation of hippocampal BDNF [1, 6]: 2.1 fold
elevation of hippocampal CREB phosphorylation [1, 6]: 2.3 fold
MED for improved % alternation in Y-maze [2]: 0.01 mg/kg
MED for improved % alternation in Y-maze [3]: 1 mg/kg
Ki ([4]; hPDE4D, inhibition of [3H]-rolipram binding, read-out: Two-site Ki1): 2.8 ± 1.08 nM
Ki ([4]; hPDE4D, inhibition of [3H]-rolipram binding, read-out: Two-site Ki2): 186 ± 19 nM
Ki ([4]; read-out: One-site Ki): 82.1 ± 6.03 nM
increase in potency by mutation of mouse UCR2 tyrosine 271 to phenylalanine ([5]; Y271F versus wild-type mouse PDE4D7): 46 fold
IC50 ([5]; mouse PDE4D7 dimer, S129D, Y271F (humanized UCR2)): 2.9 ± 0.3 nM
